Results on 24 compounds are retold here after patent US10738015B2, “1,3-diaza-spiro-[3.4]-octane derivatives” (priority 2017, dated 2020).

Structures are written as SMILES. pKi: −log10 of the molar value. Like-named read-outs stand apart in the source and are kept apart here.

For orientation: inhibition means the change of the read-out against control, counted positive when it falls. The Ki is a dissociation constant, usually derived from enzyme kinetics or from competition with a known ligand. One may read the pKi as the negative decadic logarithm of the Ki, by convention in mol/L. The low end stands for a large Ki, the high end for a small Ki.

In experiment [1] the target is human mu-opioid peptide (hMOP) receptor (Homo sapiens (Human), UniProt P35372). As to the kind of experiment: hMOP receptor binding assay (SPA). The following applies: for inhibition at 1 µM / Ki: read-out: hMOP Ki [nM] or % inhibition at 1 μM; for Ki: displacement of [3H]naloxone, hMOP receptor membranes. As for the experimental part:
Human Mu-Opioidpeptide (hMOP) Receptor Binding Assay
The hMOP receptor binding assay was performed as homogeneous SPA-assay (scintillation proximity assay) using the assay buffer 50 mM TRIS-HCl (pH 7.4) supplemented with 0.052 mg/ml bovine serum albumin (Sigma-Aldrich Co. St. Louis, Mo.). […] The assay was started by adding wheat germ agglutinin coated SPA beads (GE Healthcare UK Ltd. Buckinghamshire. UK) which had been preloaded with hMOP receptor membranes (PerkinElmer Life Sciences. Inc. Boston, Mass. USA).
For orientation: Displacement assays read how much labelled ligand stays bound in the presence of the test substance.

For experiment [2], the target named is human nociceptin/orphanin FQ peptide (hNOP) receptor (Homo sapiens (Human), UniProt P41146). As to the kind of experiment: hNOP receptor binding assay (SPA). The following applies: for Ki: displacement of [leucyl-3H]nociceptin, hNOP receptor membranes, read-out: hNOP Ki [nM] or % inhibition at 1 μM. Here is the method:
Human Nociceptin/Orphanin FQ Peptide (hNOP) Receptor Binding Assay
The hNOP receptor binding assay was performed as homogeneous SPA-assay (scintillation proximity assay) using the assay buffer 50 mM TRIS-HCl, 10 mM MgCl2, 1 mM EDTA (pH 7.4). The final assay volume (250 μl/well) included 0.5 nM of [leucyl-^3H]nociceptin as ligand (PerkinElmer Life Sciences. Inc. Boston, Mass. USA) and either test compound in dilution series or 1 μM unlabelled nociceptin for determination of unspecific binding. The test compound was diluted with 25% DMSO in H2O to yield a final 0.5% DMSO concentration which also served as a respective vehicle control. The assay was started by adding wheat germ agglutinin coated SPA beads (GE Healthcare UK Ltd. Buckinghamshire. UK) which had been preloaded with hNOP receptor membranes (PerkinElmer Life Sciences. Inc. Boston, Mass. USA). After incubation for 60 minutes at RT and centrifugation for 20 minutes at 500 rpm the signal rate was measured by means of a 1450 Microbeta Trilux ß-counter (PerkinElmer Life Sciences/Wallac. Turku. Finland). Half-maximal inhibitory concentration (IC50) values reflecting 50% displacement of [^3H]nociceptin-specific receptor binding were calculated by nonlinear regression analysis and Ki values were calculated by using the Cheng-Prusoff equation. (Cheng and Prusoff. 1973).

human mu-opioid peptide (hMOP) receptor, sequence (P35372 whole entry): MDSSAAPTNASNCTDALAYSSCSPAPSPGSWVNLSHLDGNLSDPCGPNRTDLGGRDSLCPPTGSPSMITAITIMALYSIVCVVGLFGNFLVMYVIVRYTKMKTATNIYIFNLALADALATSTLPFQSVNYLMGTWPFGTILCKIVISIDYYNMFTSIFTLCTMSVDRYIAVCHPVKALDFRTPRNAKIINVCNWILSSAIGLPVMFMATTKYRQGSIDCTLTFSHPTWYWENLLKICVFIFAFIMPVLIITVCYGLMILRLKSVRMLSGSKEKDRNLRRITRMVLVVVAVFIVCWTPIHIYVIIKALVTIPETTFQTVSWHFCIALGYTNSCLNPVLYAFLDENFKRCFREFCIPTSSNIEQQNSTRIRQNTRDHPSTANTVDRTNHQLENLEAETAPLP

For `CN(C)[C@]1(c2ccccc2)C[C@@]2(CN(CC(N)=O)C(=O)N2)C1` [SC-1, Cis-2-(2-(dimethylamino)-6-oxo-2-phenyl-5,7-diazaspiro[3.4]octan-7-yl)acetamide], the inhibition at 1 µM in experiment [1] was 19%. For the same compound, in experiment [2], the Ki stood at 200 nM. In the same order, the values of `CN(C)[C@]1(c2ccccc2)C[C@@]2(CN(CC(=O)N3CCS(=O)(=O)CC3)C(=O)N2)C1` [SC-2, cis-2-(dimethylamino)-7-(2-(1,1-dioxidothiomorpholino)-2-oxoethyl)-2-phenyl-5,7-diazaspiro[3.4]octan-6-one] are 12% and 850 nM.

In experiment [2], `COc1nc(C#N)ncc1N1C[C@]2(C[C@](c3ccccc3)(N(C)C)C2)NC1=O` [SC-3, Cis-5-(2-(dimethylamino)-6-oxo-2-phenyl-5,7-diazaspiro[3.4]octan-7-yl)-4-methoxypyrimidine-2-carbonitrile] had a pKi of 6.43. As to `CN(C)[C@]1(c2ccccc2)C[C@]2(CN(CC(=O)N3CCS(=O)(=O)CC3)C(=O)N2)C1` [SC-4, trans-2-(dimethylamino)-7-(2-(1,1-dioxidothiomorpholino)-2-oxoethyl)-2-phenyl-5,7-diazaspiro[3.4]octan-6-one], the Ki in experiment [1] was 15 nM; in experiment [2], 860 nM. On to `COc1nc(C#N)ncc1N1C[C@]2(C[C@@](c3ccccc3)(N(C)C)C2)NC1=O` [SC-5, trans-5-(2-(dimethylamino)-6-oxo-2-phenyl-5,7-diazaspiro[3.4]octan-7-yl)-4-methoxypyrimidine-2-carbonitrile], for which the figures for the Ki in experiment [1] and in experiment [2] were 99 nM and 800 nM, respectively.

The compound `CN(C)[C@]1(c2ccccc2)C[C@@]2(CN(CC(=O)N3CCS(=O)(=O)CC3)C(=O)N2CC2CCC2)C1` [SC-6, Cis-5-(cyclobutylmethyl)-2-(dimethylamino)-7-(2-(1,1-dioxidothiomorpholino)-2-oxoethyl)-2-phenyl-5,7-diazaspiro[3.4]octan-6-one] gave a pKi in experiment [2] of 9.00.

In the case of `CN(C)[C@]1(c2ccccc2)C[C@]2(CN(CC(=O)N3CCS(=O)(=O)CC3)C(=O)N2CC2CCC2)C1` [SC-7, trans-5-(cyclobutylmethyl)-2-(dimethylamino)-7-(2-(1,1-dioxidothiomorpholino)-2-oxoethyl)-2-phenyl-5,7-diazaspiro[3.4]octan-6-one], the Ki in experiment [1] was 2 nM; in experiment [2], 230 nM. Turning to `CN(C)[C@]1(c2ccccc2)C[C@]2(CN(CC(N)=O)C(=O)N2CC2CCC2)C1` [SC-8, cis-2-(5-(cyclobutylmethyl)-2-(dimethylamino)-6-oxo-2-phenyl-5,7-diazaspiro[3.4]octan-7-yl)acetamide], the results for the Ki in experiment [1] and in experiment [2] were 100 nM and 3 nM, respectively.

As to `CN(C)[C@]1(c2ccccc2)C[C@]2(CN(CC(N)=O)C(=O)N2CC2CCC2)C1` [SC-9, Trans-2-(5-(cyclobutylmethyl)-2-(dimethylamino)-6-oxo-2-phenyl-5,7-diazaspiro[3.4]octan-7-yl)acetamide], the pKi in experiment [1] was 7.32. Further, in experiment [2], the Ki is 380 nM. Turning to `COc1nc(C#N)ncc1N1C[C@]2(C[C@](c3ccccc3)(N(C)C)C2)N(CC2CCC2)C1=O` [SC-10, cis-5-(5-(cyclobutylmethyl)-2-(dimethylamino)-6-oxo-2-phenyl-5,7-diazaspiro[3.4]octan-7-yl)-4-methoxypyrimidine-2-carbonitrile], the Ki in experiment [1] turned out to be 157 nM; in experiment [2], 2 nM. With `COc1nc(C#N)ncc1N1C[C@]2(C[C@@](c3ccccc3)(N(C)C)C2)N(CC2CCC2)C1=O` [SC-11, trans-5-(5-(cyclobutylmethyl)-2-(dimethylamino)-6-oxo-2-phenyl-5,7-diazaspiro[3.4]octan-7-yl)-4-methoxypyrimidine-2-carbonitrile], the Ki in experiment [1] worked out at 3 nM; in experiment [2] it was 99 nM. `Cc1nc(N2CCOCC2)ncc1N1C[C@]2(C[C@](c3ccccc3)(N(C)C)C2)NC1=O` [SC-12, cis-2-(dimethylamino)-7-(4-methyl-2-morpholinopyrimidin-5-yl)-2-phenyl-5,7-diazaspiro[3.4]octan-6-one]: in experiment [1], the inhibition at 1 µM is 13%. Also, the Ki in experiment [2] was 630 nM. In the case of `Cc1cc(N2CCC2)ncc1N1C[C@]2(C[C@](c3ccccc3)(N(C)C)C2)NC1=O` [SC-13, cis-7-(6-(azetidin-1-yl)-4-methylpyridin-3-yl)-2-(dimethylamino)-2-phenyl-5,7-diazaspiro[3.4]octan-6-one], the inhibition at 1 µM in experiment [1] amounted to 18%. In addition, the Ki in experiment [2] came out at 860 nM.

For the compound `Cc1cc(C#N)ncc1N1C[C@]2(C[C@](c3cccc(F)c3)(N(C)C)C2)N(CC2CC2)C1=O` [SC-15, cis-5-(5-(cyclopropylmethyl)-2-(dimethylamino)-2-(3-fluorophenyl)-6-oxo-5,7-diazaspiro[3.4]octan-7-yl)-4-methylpicolinonitrile], the Ki in experiment [1] amounted to 1330 nM. The pKi in experiment [2] is 7.89. For `Cc1cc(C#N)cnc1N1C[C@]2(C[C@](c3cccc(F)c3)(N(C)C)C2)N(CC2CC2)C1=O` [SC-16, Cis-6-(5-(cyclopropylmethyl)-2-(dimethylamino)-2-(3-fluorophenyl)-6-oxo-5,7-diazaspiro[3.4]octan-7-yl)-5-methylnicotinonitrile], the Ki in experiment [1] was 1320 nM; in experiment [2], 31 nM. In the same order, the values of `CN(C)[C@]1(c2cccc(F)c2)C[C@@]2(CN(c3ccc(OC(F)(F)F)cn3)C(=O)N2CC2CC2)C1` [SC-18, Cis-5-(cyclopropylmethyl)-2-(dimethylamino)-2-(3-fluorophenyl)-7-(5-(trifluoromethoxy)pyridin-2-yl)-5,7-diazaspiro[3.4]octan-6-one] are 805 nM and 55 nM.

On to `Cc1cc(N2CCOCC2)ncc1N1C[C@]2(C[C@](c3ccccc3)(N(C)C)C2)NC1=O` [SC-19, Cis-2-(dimethylamino)-7-(4-methyl-6-morpholinopyridin-3-yl)-2-phenyl-5,7-diazaspiro[3.4]octan-6-one], for which the Ki in experiment [1] came to 5890 nM; in experiment [2] it was 1810 nM. On the same counts, the results for `Cc1cc(C(C)(C)O)ncc1N1C[C@]2(C[C@](c3ccccc3)(N(C)C)C2)NC1=O` [SC-20, Cis-2-(dimethylamino)-7-(6-(2-hydroxypropan-2-yl)-4-methylpyridin-3-yl)-2-phenyl-5,7-diazaspiro[3.4]octan-6-one] are 5840 nM and 1160 nM.

Consider `Cc1cc(C(C)(C)O)ccc1N1C[C@]2(C[C@](c3ccccc3)(N(C)C)C2)NC1=O` [SC-21, Cis-2-(dimethylamino)-7-(4-(2-hydroxypropan-2-yl)-2-methylphenyl)-2-phenyl-5,7-diazaspiro[3.4]octan-6-one], for which the Ki in experiment [1] was 3580 nM; in experiment [2] it was 775 nM. Regarding `Cc1cc(C(F)F)ncc1N1C[C@]2(C[C@](c3cccc(F)c3)(N(C)C)C2)NC1=O` [SC-22, cis-7-(6-(difluoromethyl)-4-methylpyridin-3-yl)-2-(dimethylamino)-2-(3-fluorophenyl)-5,7-diazaspiro[3.4]octan-6-one], the inhibition at 1 µM in experiment [1] is 11%. The Ki in experiment [2] is 380 nM.

In the case of `CN(C)[C@]1(c2cccc(F)c2)C[C@@]2(CN(c3ccc(OC(F)(F)F)cn3)C(=O)N2CC2(F)COC2)C1` [SC-23, Cis- -2-(dimethylamino)-5-((3-fluorooxetan-3-yl)methyl)-2-(3-fluorophenyl)-7-(5-(trifluoromethoxy)pyridin-2-yl)-5,7-diazaspiro[3.4]octan-6-one], the Ki in experiment [1] worked out at 545 nM; in experiment [2], 25 nM. On the same counts, the results for `Cc1cc(C(F)F)ncc1N1C[C@]2(C[C@](c3cccc(F)c3)(N(C)C)C2)N(CC2CC2)C1=O` [SC-24, Cis-5-(cyclopropylmethyl)-7-(6-(difluoromethyl)-4-methylpyridin-3-yl)-2-(dimethylamino)-2-(3-fluorophenyl)-5,7-diazaspiro[3.4]octan-6-one] are 1180 nM and 23 nM. For `CN(C)[C@]1(c2cccc(F)c2)C[C@@]2(CN(c3ccc(OC(F)(F)F)cn3)C(=O)N2CC2(F)CC2)C1` [SC-26, Cis-2-(dimethylamino)-5-((1-fluorocyclopropyl)methyl)-2-(3-fluorophenyl)-7-(5-(trifluoromethoxy)pyridin-2-yl)-5,7-diazaspiro[3.4]octan-6-one], the values for the Ki in experiment [1] and in experiment [2] were 1020 nM and 91 nM, respectively. `CN(C)[C@]1(c2cccc(F)c2)C[C@@]2(CN(c3ccc(OC(F)(F)F)cn3)C(=O)N2CC2(O)CCC2)C1` [SC-27, Cis-2-(dimethylamino)-2-(3-fluorophenyl)-5-((1-hydroxycyclobutyl)methyl)-7-(5-(trifluoromethoxy)pyridin-2-yl)-5,7-diazaspiro[3.4]octan-6-one]: the Ki stood at 335 nM in experiment [1] and 12 nM in experiment [2].
